# Data reported in patent US7420051B2, “Synthetic process for the manufacture of an ecteinaschidin compound” (Pharma Mar, S.A., priority 2000, dated 2008).
# What was measured:
# Format in all cases: cell-based
# [1] = system: P-388 (suspension culture of a lymphoid neoplasm from DBA/2 mouse); assay: Cytotoxic activity screening, P-388 cells; settings: Mus musculus, P388, 72 h, three days of incubation, approximate IC50
# Procedure: (§1) Cell Cultures. Cells were maintained in logarithmic phase of growth in Eagle's Minimum Essential Medium, with Earle's Balanced Salts, with 2.0 mM L-glutamine, with non-essential amino acids, without sodium bicarbonate (EMEM/neaa); supplemented with 10% Fetal Calf Serum (FCS), 10^−2 M sodium bicarbonate and 0.1 g/l penicillin-G+streptomycin sulfate.
# (§2) A simple screening procedure has been carried out to determine and compare the antitumour activity of these compounds, using an adapted form of the method described by Bergeron et al (1984). The tumour cell line employed have been P-388 (suspension culture of a lymphoid neoplasm from DBA/2 mouse), A-549 (monolayer culture of a human lung carcinoma), HT-29 (monolayer culture of a human colon carcinoma) and MEL-28 (monolayer culture of a human melanoma).
# P-388 cell were seeded into 16 mm wells at 1×10^4 cells per well in 1 ml aliquots of MEM 5FCS containing the indicated concentration of drug. A separate set of cultures without drug was seeded as control growth to ensure that cells remained in exponential phase of growth. All determinations were carried out in duplicate.
# [2] = system: A-549 (monolayer culture of a human lung carcinoma); assay: Cytotoxic activity screening, A-549 cells; settings: Homo sapiens, A549, 72 h, three days of incubation, Crystal Violet, approximate IC50
# Procedure: as §1, §2
# (§3) A-549, HT-29 and MEL-28 were seeded into 16 mm wells at 2×10^4 cells per well in 1 ml aliquots of MEM 10FCS containing the indicated concentration of drug. A separate set of cultures without drug was seeded as control growth to ensure that cells remained in exponential phase of growth. All determinations were carried out in duplicate. After three days of incubation at 37° C., 10% CO2 in a 98% humid atmosphere, the wells were stained with 0.1% Crystal Violet. An approximately IC50 was determined by comparing the growth in wells with drug to the growth in wells control.
# [3] = system: HT-29 (monolayer culture of a human colon carcinoma); assay: Cytotoxic activity screening, HT-29 cells; settings: Homo sapiens, HT-29, 72 h, three days of incubation, Crystal Violet, approximate IC50
# Procedure: as §1, §2, §3
# [4] = system: MEL-28 (monolayer culture of a human melanoma); assay: Cytotoxic activity screening, MEL-28 cells; settings: SK-MEL-28, 72 h, three days of incubation, Crystal Violet, approximate IC50
# Procedure: as §1, §2, §3
# [5] = system: DU-145; assay: Cytotoxic activity screening, DU-145 cells; settings: Homo sapiens, DU-145, DU-145 cells
SMILES,IC50 [1],IC50 [2],IC50 [3],IC50 [4],IC50 [5]
COC1=C(C)C(=O)C2=C(C1=O)[C@H](CNC(=O)[C@H](C)NC(=O)OC(C)(C)C)N1C(C2)[C@H]2c3c(cc(C)c(OC)c3O)C[C@@H]([C@@H]1C#N)N2C (some centres unmarked),0.15 µM,> 0.15 µM,0.15 µM,> 0.15 µM,
COCOc1c(OC)c(C)cc2c1[C@@H]1C3CC4=C(C(=O)C(OC)=C(C)C4=O)[C@H](CNC(=O)[C@H](C)NC(=O)OC(C)(C)C)N3[C@@H](C#N)[C@H](C2)N1C (some centres unmarked),1.44 µM,1.44 µM,1.44 µM,1.44 µM,
COCOc1c(OC)c(C)cc2c1[C@@H]1C3CC4=C(C(=O)C(O)=C(C)C4=O)[C@H](CNC(=O)[C@H](C)NC(=O)OC(C)(C)C)N3[C@@H](C#N)[C@H](C2)N1C (some centres unmarked),> 1.5 µM,> 1.5 µM,> 1.5 µM,> 1.5 µM,
COCOc1c(OC)c(C)cc2c1[C@@H]1C3Cc4c(O)c(C)c5c(c4[C@H](CNC(=O)[C@H](C)NC(=O)OC(C)(C)C)N3[C@@H](C#N)[C@H](C2)N1C)OCO5 (some centres unmarked),1.4 µM,1.4 µM,1.4 µM,1.4 µM,
C=CCOc1c(C)c2c(c3c1CC1[C@H]4c5c(cc(C)c(OC)c5OCOC)C[C@@H]([C@H](C#N)N1[C@H]3CNC(=O)[C@H](C)NC(=O)OC(C)(C)C)N4C)OCO2 (some centres unmarked),0.01 µM,0.01 µM,0.01 µM,0.01 µM,
C=CCOc1c(C)c2c(c3c1CC1[C@H]4c5c(cc(C)c(OC)c5O)C[C@@H]([C@H](C#N)N1[C@H]3CNC(=O)[C@H](C)N)N4C)OCO2 (some centres unmarked),0.08 µM,0.16 µM,0.01 µM,0.16 µM,
C=CCOc1c(C)c2c(c3c1CC1[C@H]4c5c(cc(C)c(OC)c5O)C[C@@H]([C@H](C#N)N1[C@H]3CNC(=O)[C@H](C)NC(=S)Nc1ccccc1)N4C)OCO2 (some centres unmarked),0.01 µM,0.01 µM,0.01 µM,0.01 µM,
C=CCOc1c(C)c2c(c3c1CC1[C@H]4c5c(cc(C)c(OC)c5O)C[C@@H]([C@H](C#N)N1[C@H]3CN)N4C)OCO2 (some centres unmarked),0.019 µM,0.019 µM,0.019 µM,0.019 µM,
COc1c(C)cc2c(c1O)[C@@H]1C3[C@@H]4SCC(N)C(=O)OC[C@@H](c5c6c(c(C)c(OC(C)=O)c54)OCO6)N3[C@@H](C#N)[C@H](C2)N1C (some centres unmarked),0.008 µM,0.008 µM,0.008 µM,0.008 µM,
COc1c(C)cc2c(c1O)[C@@H]1C3[C@@H]4SCC(=O)C(=O)OC[C@@H](c5c6c(c(C)c(OC(C)=O)c54)OCO6)N3[C@@H](C#N)[C@H](C2)N1C (some centres unmarked),0.01 µM,0.01 µM,0.01 µM,0.01 µM,
COC1=C(C)C(=O)C2=C(C1=O)C(CNC(C)=O)N1C(C2)[C@H]2c3c(cc(C)c(OC)c3O)C[C@@H]([C@@H]1C#N)N2C (some centres unmarked),0.005 µM,0.005 µM,0.005 µM,0.005 µM,
COc1c(C)cc2c(c1O)[C@@H]1C3Cc4c(OC(C)=O)c(C)c5c(c4[C@H](CNC(=O)CC(C)C)N3[C@@H](C#N)[C@H](C2)N1C)OCO5 (some centres unmarked),0.0008 µM,0.001 µM,,0.0008 µM,0.001 µM
COc1c(C)cc2c(c1O)[C@@H]1C3Cc4c(OC(C)=O)c(C)c5c(c4[C@H](CNC(=O)/C=C/c4cccc(C(F)(F)F)c4)N3[C@@H](C#N)[C@H](C2)N1C)OCO5 (some centres unmarked),0.0001 µM,0.0001 µM,,0.0001 µM,
C=CCOc1c(C)c2c(c3c1CC1[C@H]4c5c(cc(C)c(OC)c5OCOC)C[C@@H]([C@H](C#N)N1[C@H]3COC(CSCC1c3ccccc3-c3ccccc31)NC(=O)OC(C)(C)C)N4C)OCO2 (some centres unmarked),,> 1 µM,> 1 µM,,
COCOc1c(OC)c(C)cc2c1[C@@H]1C3CC4(O)C(=O)C(C)=C5OCOC5=C4[C@H](COC(CSCC4c5ccccc5-c5ccccc54)NC(=O)OC(C)(C)C)N3[C@@H](C#N)[C@H](C2)N1C (some centres unmarked),,> 1 µM,> 1 µM,,
C=CCOc1c(C)c2c(c3c1CC1[C@H]4c5c(cc(C)c(OC)c5O)C[C@@H]([C@H](C#N)N1[C@H]3CO)N4C)OCO2 (some centres unmarked),0.19 µM,0.19 µM,0.19 µM,0.19 µM,
C=CCOc1c(C)c2c(c3c1CC1[C@H]4c5c(cc(C)c(OC)c5O)C[C@@H]([C@H](C#N)N1[C@H]3COC(CSCC1c3ccccc3-c3ccccc31)NC(=O)OC(C)(C)C)N4C)OCO2 (some centres unmarked),,0.0055 µM,0.0055 µM,,
C=CCOc1c(C)c2c(c3c1CC1[C@H]4c5c(cc(C)c(OC)c5OCOCCOC)C[C@@H]([C@H](C#N)N1[C@H]3COC(CSCC1c3ccccc3-c3ccccc31)NC(=O)OC(C)(C)C)N4C)OCO2 (some centres unmarked),,> 1 µM,> 1 µM,,

SMILES,IC50 [1],IC50 [2],IC50 [3],IC50 [4],IC50 [5]
COCCOCOc1c(OC)c(C)cc2c1[C@@H]1C3Cc4c(O)c(C)c5c(c4[C@H](COC(CSCC4c6ccccc6-c6ccccc64)NC(=O)OC(C)(C)C)N3[C@@H](C#N)[C@H](C2)N1C)OCO5 (some centres unmarked),,0.01 µM,0.01 µM,,
COCCOCOc1c(OC)c(C)cc2c1[C@@H]1C3CC4(O)C(=O)C(C)=C5OCOC5=C4[C@H](COC(CSCC4c5ccccc5-c5ccccc54)NC(=O)OC(C)(C)C)N3[C@@H](C#N)[C@H](C2)N1C (some centres unmarked),,0.051 µM,0.051 µM,,
COCCOCOc1c(OC)c(C)cc2c1[C@@H]1C3[C@@H]4SC[C@@H](NC(=O)OC(C)(C)C)C(=O)OC[C@@H](c5c6c(c(C)c(OC(C)=O)c54)OCO6)N3[C@@H](C#N)[C@H](C2)N1C (some centres unmarked),,0.012 µM,,,
C=CCOc1c(C)c2c(c3c1CC1[C@H]4c5c(cc(C)c(OC)c5O)C[C@@H]([C@H](C#N)N1[C@H]3COC(CSCC1c3ccccc3-c3ccccc31)NC(=O)OCc1ccccc1)N4C)OCO2 (some centres unmarked),,0.11 µM,0.11 µM,,
C=CCOc1c(C)c2c(c3c1CC1[C@H]4c5c(cc(C)c(OC)c5OCOCCOC)C[C@@H]([C@H](C#N)N1[C@H]3COC(CSCC1c3ccccc3-c3ccccc31)NC(=O)OCc1ccccc1)N4C)OCO2 (some centres unmarked),,> 1 µM,> 1 µM,,
COCCOCOc1c(OC)c(C)cc2c1[C@@H]1C3CC4(O)C(=O)C(C)=C5OCOC5=C4[C@H](COC(CSCC4c5ccccc5-c5ccccc54)NC(=O)OCc4ccccc4)N3[C@@H](C#N)[C@H](C2)N1C (some centres unmarked),,> 1 µM,> 1 µM,,
COCCOCOc1c(OC)c(C)cc2c1[C@@H]1C3[C@@H]4SC[C@H](NC(=O)OCc5ccccc5)C(=O)OC[C@@H](c5c6c(c(C)c(OC(C)=O)c54)OCO6)N3[C@@H](C#N)[C@H](C2)N1C (some centres unmarked),,0.59 µM,0.59 µM,,
COc1c(C)cc2c(c1O)[C@@H]1C3[C@@H]4SC[C@H](NC(=O)OCc5ccccc5)C(=O)OC[C@@H](c5c6c(c(C)c(OC(C)=O)c54)OCO6)N3[C@@H](C#N)[C@H](C2)N1C (some centres unmarked),,0.0013 µM,0.0013 µM,,
C=CCOC(=O)N[C@@H]1CS[C@@H]2c3c(OC(C)=O)c(C)c4c(c3[C@H](COC1=O)N1C2[C@H]2c3c(cc(C)c(OC)c3O)C[C@@H]([C@@H]1C#N)N2C)OCO4 (some centres unmarked),,0.00015 µM,,,
C=CCOc1c(C)c2c(c3c1CC1[C@H]4c5c(cc(C)c(OC)c5O)C[C@@H]([C@H](C#N)N1[C@H]3CO[Si](C)(C)C(C)(C)C)N4C)OCO2 (some centres unmarked),,> 1 µM,> 1 µM,,
C=CCOc1c(C)c2c(c3c1CC1[C@H]4c5c(cc(C)c(OC)c5OCOCCOC)C[C@@H]([C@H](C#N)N1[C@H]3CO[Si](C)(C)C(C)(C)C)N4C)OCO2 (some centres unmarked),,> 1 µM,> 1 µM,,
COCCOCOc1c(OC)c(C)cc2c1[C@@H]1C3Cc4c(O)c(C)c5c(c4[C@H](CO[Si](C)(C)C(C)(C)C)N3[C@@H](C#N)[C@H](C2)N1C)OCO5 (some centres unmarked),,> 1 µM,> 1 µM,,
COCCOCOc1c(OC)c(C)cc2c1[C@@H]1C3CC4(O)C(=O)C(C)=C5OCOC5=C4[C@H](CO[Si](C)(C)C(C)(C)C)N3[C@@H](C#N)[C@H](C2)N1C (some centres unmarked),,> 1 µM,> 1 µM,,
COCCOCOc1c(OC)c(C)cc2c1[C@@H]1C3CC4(O)C(=O)C(C)=C5OCOC5=C4[C@H](CO)N3[C@@H](C#N)[C@H](C2)N1C (some centres unmarked),,> 1 µM,> 1 µM,,
C=CCOC(=O)NC(CSCC1c2ccccc2-c2ccccc21)OC[C@H]1C2=C3OCOC3=C(C)C(=O)C2(O)CC2[C@H]3c4c(cc(C)c(OC)c4OCOCCOC)C[C@@H]([C@H](C#N)N21)N3C (some centres unmarked),,> 1 µM,> 1 µM,,
C=CCOC(=O)N[C@@H]1CS[C@@H]2c3c(OC(C)=O)c(C)c4c(c3[C@H](COC1=O)N1C2[C@H]2c3c(cc(C)c(OC)c3OCOCCOC)C[C@@H]([C@@H]1C#N)N2C)OCO4 (some centres unmarked),,0.012 µM,0.012 µM,,
COCCOc1c(OC)c(C)cc2c1[C@@H]1C3[C@@H]4SC[C@H](NC(=O)OCc5ccccc5)C(=O)OC[C@@H](c5c6c(c(C)c(OC(C)=O)c54)OCO6)N3[C@@H](C#N)[C@H](C2)N1C (some centres unmarked),,0.062 µM,0.062 µM,,
